Source: ChEMBL document CHEMBL5523697, “Colony Stimulating Factor-1 Receptor: An emerging target for neuroinflammation PET imaging and AD therapy” (Bioorg Med Chem, 2024)
Values belong to the molecule of their own block, whether it stands above or below them.

Experiments:
[1] = target: T1, Macrophage colony-stimulating factor 1 receptor (Homo sapiens, UniProt P07333)
[2] = target: T1, Macrophage colony-stimulating factor 1 receptor; remark: listed apart in the source
physchem [3] = details: buffer, pH 7.4
[4] = target: T1, Macrophage colony-stimulating factor 1 receptor; remark: listed apart in the source
in vivo [5] = details: mouse, brain
in vivo [6] = details: mouse, brain, iv, 5 mg/kg
in vivo [7] = details: mouse, brain, iv, 5 mg/kg; remark: listed apart in the source
in vivo [8] = details: mouse, brain, iv, 5 mg/kg; remark: listed apart in the source
physchem [9] = details: octanol/water

T1 sequence (P07333 whole entry): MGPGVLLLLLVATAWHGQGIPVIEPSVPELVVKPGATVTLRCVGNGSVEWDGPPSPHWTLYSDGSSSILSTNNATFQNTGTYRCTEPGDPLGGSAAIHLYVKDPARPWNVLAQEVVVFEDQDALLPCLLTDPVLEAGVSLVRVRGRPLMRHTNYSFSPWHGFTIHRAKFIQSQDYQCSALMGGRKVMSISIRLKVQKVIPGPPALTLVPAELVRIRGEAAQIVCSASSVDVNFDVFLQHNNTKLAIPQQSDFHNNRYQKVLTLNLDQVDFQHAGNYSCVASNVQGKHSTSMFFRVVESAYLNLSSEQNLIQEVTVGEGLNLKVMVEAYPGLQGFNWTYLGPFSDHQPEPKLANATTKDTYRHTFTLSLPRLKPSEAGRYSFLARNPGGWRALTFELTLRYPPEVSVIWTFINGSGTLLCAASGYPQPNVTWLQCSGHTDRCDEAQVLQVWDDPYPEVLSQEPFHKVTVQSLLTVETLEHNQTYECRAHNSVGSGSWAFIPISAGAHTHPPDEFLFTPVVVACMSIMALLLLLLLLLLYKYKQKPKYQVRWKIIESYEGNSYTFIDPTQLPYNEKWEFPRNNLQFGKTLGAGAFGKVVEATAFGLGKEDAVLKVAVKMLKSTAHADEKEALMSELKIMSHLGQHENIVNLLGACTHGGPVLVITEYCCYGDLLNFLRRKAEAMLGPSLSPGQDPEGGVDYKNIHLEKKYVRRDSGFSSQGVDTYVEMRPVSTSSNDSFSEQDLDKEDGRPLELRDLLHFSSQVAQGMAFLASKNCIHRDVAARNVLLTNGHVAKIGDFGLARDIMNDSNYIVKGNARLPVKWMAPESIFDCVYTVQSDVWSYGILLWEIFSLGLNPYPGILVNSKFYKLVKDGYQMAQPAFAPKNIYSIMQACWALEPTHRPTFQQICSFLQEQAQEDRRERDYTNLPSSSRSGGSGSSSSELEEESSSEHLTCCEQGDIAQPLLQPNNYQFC

Ki [1]: 8 nM
SMILES: CCOc1cc2ncc(C(N)=O)c(Nc3ccc(F)cc3F)c2cc1N1CCN(C)CC1

Kd [2]: 15.7 nM | logD (physchem [3]): 3.67
SMILES: CNC(=O)c1cc(Oc2ccc3nc(N(C)[C@@H]4CCCC[C@H]4O)sc3c2)ccn1

IC50 [4]: 6 nM
SMILES: CCOc1cc2ncc(C(N)=O)c(Nc3ccc(F)cc3F)c2cc1N1CCN([11CH3])CC1

tissue uptake at 1 h (in vivo [5]): 1.18 %ID/g | tissue uptake at 0.25 h (in vivo [6]): 1.35 %ID/g | tissue uptake at 5 min (in vivo [7]): 2 %ID/g | tissue uptake at 1 h (in vivo [8]): 1.3 %ID/g | logD (physchem [9]): 2.26
SMILES: [11CH3]NC(=O)c1cc(Oc2ccc3nc(N[C@@H]4CCCC[C@H]4O)sc3c2)ccn1

Kd [2]: 26 nM | logD (physchem [3]): 3.38
SMILES: CNC(=O)c1cc(Oc2ccc3nc(N([11CH3])[C@@H]4CCCC[C@H]4O)sc3c2)ccn1
